Experimental data reported in ChEMBL document CHEMBL5247642, “Structural Optimization of Fibroblast Growth Factor Receptor Inhibitors for Treating Solid Tumors” (J Med Chem, 2023).
Converted amounts (≈) assume the structure as drawn. The source made the active and inactive calls. No cut-off for these calls is given here.

Tests used:
NCI-H1581 [1] = assay: Antitumor activity against human NCI-H1581 cells xenografted in nude mouse assessed as tumor growth inhibition at 400 mg/kg, po administered once daily for 11 days by microcaliper analysis; assay type: functional, organism-based; conditions: time 11.0 day
[2] = biological target: Vascular endothelial growth factor receptor 1 (Homo sapiens) (UniProt P17948); assay: Inhibition of VEGFR1 (unknown origin) at 1 uM using Poly (Glu,Tyr) 4:1 as substrate incubated for 60 mins in presence of ATP by ELISA analysis relative to control
SNU-16 [3] = assay: Antiproliferative activity against human SNU-16 cells assessed as reduction in cell viability measured for 72 hrs; assay type: functional, cell-based; conditions: SNU-16, 72 h
NCI-H1299 = assay: Antiproliferative activity against human NCI-H1299 cells assessed as reduction in cell viability measured after 72 hrs; assay type: functional, cell-based; conditions: NCI-H1299, 72 h
NCI-H441 = assay: Antiproliferative activity against human NCI-H441 cells assessed as reduction in cell viability measured after 72 hrs; assay type: functional, cell-based; conditions: NCI-H441, 72 h
[4] = AUC (0 to infinity) in CD-1 mouse at 1 mg/kg, iv measured after 24 hrs by LC-MS/MS analysis; assay type: ADME, organism-based; parameters: dose 1 mg/kg, time 24 hrs, route iv; conditions: in vivo
[5] = Stability in rat whole blood assessed as parent compound remaining measured upto 5 hrs by LC-MS/MS analysis; assay type: ADME, tissue-based
NCI-H520 = assay: Antiproliferative activity against human NCI-H520 cells assessed as reduction in cell viability measured after 72 hrs; assay type: functional, cell-based; conditions: NCI-H520, 72 h
[6] = Oral bioavailability in CD-1 mouse at 3 mg/kg measured after 24 hrs by LC-MS/MS analysis; assay type: ADME, organism-based; conditions: in vivo
[7] = AUC (0 to t) in CD-1 mouse at 3 mg/kg, po measured after 24 hrs by LC-MS/MS analysis; assay type: ADME, organism-based; parameters: time 24 hrs, dose 3 mg/kg, route po; conditions: in vivo
[8] = biological target: T1, Fibroblast growth factor receptor (Homo sapiens) (UniProt P22607+P11362+P22455+P21802); assay: Inhibition of FGFR phosphorylation in human SNU-16 cells at 5 nM measured after 12 hrs; assay type: cell-based
[9] = Half life in CD-1 mouse at 1 mg/kg, iv measured after 24 hrs by LC-MS/MS analysis; assay type: ADME, organism-based; conditions: in vivo
[10] = Cmax in CD-1 mouse at 3 mg/kg, po measured after 24 hrs by LC-MS/MS analysis; assay type: ADME, organism-based; parameters: time 24 hrs, dose 3 mg/kg, route po; conditions: in vivo
PC-9 = assay: Antiproliferative activity against human PC-9 cells assessed as reduction in cell viability measured after 72 hrs; assay type: functional, cell-based; conditions: PC-9, 72 h
[11] = AUC (0 to t) in CD-1 mouse at 1 mg/kg, iv measured after 24 hrs by LC-MS/MS analysis; assay type: ADME, organism-based; parameters: time 24 hrs, dose 1 mg/kg, route iv; conditions: in vivo
NCI-H3122 = assay: Antiproliferative activity against human NCI-H3122 cells assessed as reduction in cell viability measured after 72 hrs; assay type: functional, cell-based; conditions: NCI-H3122, 72 h
SNU-16 [12] = assay: Antitumor activity against human SNU-16 cells xenografted in nude mouse assessed as tumor growth inhibition at 200 mg/kg, po administered once daily for 21 days by microcaliper analysis relative to control; assay type: functional; parameters: scale not given: the % may be the effect or the level left; conditions: time 21 day
A549 = assay: Antiproliferative activity against human A549 cells assessed as reduction in cell viability measured after 72 hrs; assay type: functional, cell-based; conditions: A549, 72 h
NCI-H716 [13] = assay: Antiproliferative activity against human NCI-H716 cells expressing FGFR2 assessed as reduction in cell viability measured after 72 hrs; assay type: functional, cell-based; conditions: NCI-H716, 72 h
[14] = biological target: T2, Fibroblast growth factor receptor 4 (Homo sapiens, UniProt P22455); assay: Inhibition of FGFR4 (unknown origin)
[15] = biological target: Fibroblast growth factor receptor 1 (Homo sapiens, UniProt P11362); conditions: dose 100.0 nM, time 60.0 min
NCI-H1581 [16] = assay: Antiproliferative activity against human NCI-H1581 cells expressing FGFR1 assessed as reduction in cell viability measured after 72 hrs; assay type: functional, cell-based; conditions: NCI-H1581, 72 h
NCI-H2228 = assay: Antiproliferative activity against human NCI-H2228 cells assessed as reduction in cell viability measured after 72 hrs; assay type: functional, cell-based; conditions: NCI-H2228, 72 h
NCI-H727 = assay: Antiproliferative activity against human NCI-H727 cells assessed as reduction in cell viability measured after 72 hrs; assay type: functional, cell-based; conditions: NCI-H727, 72 h
EBC-1 = assay: Antiproliferative activity against human EBC-1 cells assessed as reduction in cell viability measured after 72 hrs; assay type: functional, cell-based; conditions: EBC-1, 72 h
BaF3 = assay: Antiproliferative activity against mouse BaF3 cells assessed as reduction in cell viability measured after 72 hrs; assay type: functional, cell-based; conditions: BaF3, 72 h
[17] = MRT in CD-1 mouse at 3 mg/kg, po measured after 24 hrs by LC-MS/MS analysis; assay type: ADME, organism-based; conditions: in vivo
[18] = biological target: T1, Fibroblast growth factor receptor (Homo sapiens); assay: Inhibition of FGFR phosphorylation in human SNU-16 cells at 5 nM measured after 24 hrs; assay type: cell-based
OPM-2 = assay: Antiproliferative activity against human OPM-2 cells expressing FGFR3 assessed as reduction in cell viability measured after 72 hrs; assay type: functional, cell-based; conditions: OPM-2, 72 h
NCI-H226 = assay: Antiproliferative activity against human NCI-H226 cells assessed as reduction in cell viability measured after 72 hrs; assay type: functional, cell-based; conditions: NCI-H226, 72 h
[19] = biological target: Fibroblast growth factor receptor 1 (Homo sapiens, UniProt P11362, V561M); assay: Inhibition of human recombinant FGFR1 V561M mutant (456 to 765 residues) using GGEEEEYFELVKK as substrate incubated for 40 mins presence of [gamma-33P]-ATP by radiometric based scintillation counter assay
SU.86.86 = assay: Antiproliferative activity against human SU-86-86 cells assessed as reduction in cell viability measured after 72 hrs; assay type: functional, cell-based; conditions: SU.86.86, 72 h
[20] = biological target: T2, Fibroblast growth factor receptor 4; assay: Inhibition of FGFR4 (unknown origin) using Poly (Glu,Tyr) 4:1 as substrate incubated for 60 mins in presence of ATP by ELISA analysis
CAPAN-1 = assay: Antiproliferative activity against human CAPAN-1 cells assessed as reduction in cell viability measured after 72 hrs; assay type: functional, cell-based; conditions: CAPAN-1, 72 h
NCI-H716 [21] = assay: Antitumor activity against human NCI-H716 cells xenografted in nude mouse assessed as tumor growth inhibition at 200 mg/kg, po administered once daily for 18 days by microcaliper analysis relative to control; assay type: functional; parameters: scale not given: the % may be the effect or the level left; conditions: time 18 day
PANC-1 = assay: Antiproliferative activity against human PANC-1 cells assessed as reduction in cell viability measured after 72 hrs; assay type: functional, cell-based; conditions: PANC-1, 72 h
[22] = Solubility of compound in PBS at pH 7.4 at 1 to 100 microg/ml by laser nephelometry analysis; assay type: physicochemical; conditions: dose 1-100 µg/ml
[23] = biological target: T1, Fibroblast growth factor receptor (Homo sapiens); assay: Inhibition of FGFR signalling in human SNU-16 assessed as inhibition of PLCgamma phosphorylation at 0.1 nM incubated for 2 hrs by Western blot analysis; assay type: cell-based
NCI-H1792 = assay: Antiproliferative activity against human NCI-H1792 cells assessed as reduction in cell viability measured after 72 hrs; assay type: functional, cell-based; conditions: NCI-H1792, 72 h
NCI-H716 [24] = assay: Antitumor activity against human NCI-H716 cells xenografted in nude mouse assessed as tumor growth inhibition at 400 mg/kg, po administered once daily for 18 days by microcaliper analysis; assay type: functional, organism-based; conditions: time 18.0 day

T1 sequence (P11362 whole entry, looked up): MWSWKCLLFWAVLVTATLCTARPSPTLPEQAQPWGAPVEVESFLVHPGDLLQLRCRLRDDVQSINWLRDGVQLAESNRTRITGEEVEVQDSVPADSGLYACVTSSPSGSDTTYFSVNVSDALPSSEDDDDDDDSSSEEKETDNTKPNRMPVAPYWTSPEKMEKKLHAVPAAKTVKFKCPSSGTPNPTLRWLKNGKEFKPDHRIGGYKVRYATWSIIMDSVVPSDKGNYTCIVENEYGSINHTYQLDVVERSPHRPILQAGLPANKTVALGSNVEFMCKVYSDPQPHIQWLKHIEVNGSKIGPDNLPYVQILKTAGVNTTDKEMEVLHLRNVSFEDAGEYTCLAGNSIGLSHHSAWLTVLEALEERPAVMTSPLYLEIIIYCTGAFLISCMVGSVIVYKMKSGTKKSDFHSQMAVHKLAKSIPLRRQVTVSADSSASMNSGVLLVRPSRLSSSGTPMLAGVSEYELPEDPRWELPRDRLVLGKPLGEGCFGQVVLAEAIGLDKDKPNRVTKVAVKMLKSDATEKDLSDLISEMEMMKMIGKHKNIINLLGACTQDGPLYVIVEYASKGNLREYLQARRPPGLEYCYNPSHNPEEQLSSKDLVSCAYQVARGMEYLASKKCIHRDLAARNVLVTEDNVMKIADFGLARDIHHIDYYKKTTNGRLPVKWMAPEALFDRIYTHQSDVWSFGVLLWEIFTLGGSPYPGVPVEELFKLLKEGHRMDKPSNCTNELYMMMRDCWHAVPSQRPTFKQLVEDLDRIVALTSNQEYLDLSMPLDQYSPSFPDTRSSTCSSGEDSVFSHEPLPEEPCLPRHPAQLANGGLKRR
T1 sequence (P21802 whole entry, looked up): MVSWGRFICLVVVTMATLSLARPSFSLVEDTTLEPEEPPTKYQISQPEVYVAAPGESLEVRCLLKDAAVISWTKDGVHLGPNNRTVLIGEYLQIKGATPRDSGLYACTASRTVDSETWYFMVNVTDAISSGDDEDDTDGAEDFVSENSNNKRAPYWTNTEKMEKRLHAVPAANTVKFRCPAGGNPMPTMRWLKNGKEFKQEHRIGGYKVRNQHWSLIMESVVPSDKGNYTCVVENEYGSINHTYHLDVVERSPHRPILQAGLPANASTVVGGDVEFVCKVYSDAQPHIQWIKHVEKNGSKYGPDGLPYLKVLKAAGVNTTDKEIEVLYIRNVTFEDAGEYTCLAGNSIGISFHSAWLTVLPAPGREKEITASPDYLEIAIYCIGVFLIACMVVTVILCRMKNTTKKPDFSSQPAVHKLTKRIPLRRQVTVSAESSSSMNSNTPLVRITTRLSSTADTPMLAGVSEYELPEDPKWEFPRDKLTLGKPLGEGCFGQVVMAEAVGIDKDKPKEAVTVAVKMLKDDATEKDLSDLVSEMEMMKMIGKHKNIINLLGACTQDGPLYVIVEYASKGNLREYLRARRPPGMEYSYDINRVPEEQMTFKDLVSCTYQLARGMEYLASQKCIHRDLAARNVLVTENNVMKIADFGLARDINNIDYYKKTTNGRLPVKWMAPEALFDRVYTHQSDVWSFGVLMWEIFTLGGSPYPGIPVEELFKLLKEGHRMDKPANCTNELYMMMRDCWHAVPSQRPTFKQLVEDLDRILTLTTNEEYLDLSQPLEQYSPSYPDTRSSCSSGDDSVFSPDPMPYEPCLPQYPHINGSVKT
T1 sequence (P22455 whole entry, looked up): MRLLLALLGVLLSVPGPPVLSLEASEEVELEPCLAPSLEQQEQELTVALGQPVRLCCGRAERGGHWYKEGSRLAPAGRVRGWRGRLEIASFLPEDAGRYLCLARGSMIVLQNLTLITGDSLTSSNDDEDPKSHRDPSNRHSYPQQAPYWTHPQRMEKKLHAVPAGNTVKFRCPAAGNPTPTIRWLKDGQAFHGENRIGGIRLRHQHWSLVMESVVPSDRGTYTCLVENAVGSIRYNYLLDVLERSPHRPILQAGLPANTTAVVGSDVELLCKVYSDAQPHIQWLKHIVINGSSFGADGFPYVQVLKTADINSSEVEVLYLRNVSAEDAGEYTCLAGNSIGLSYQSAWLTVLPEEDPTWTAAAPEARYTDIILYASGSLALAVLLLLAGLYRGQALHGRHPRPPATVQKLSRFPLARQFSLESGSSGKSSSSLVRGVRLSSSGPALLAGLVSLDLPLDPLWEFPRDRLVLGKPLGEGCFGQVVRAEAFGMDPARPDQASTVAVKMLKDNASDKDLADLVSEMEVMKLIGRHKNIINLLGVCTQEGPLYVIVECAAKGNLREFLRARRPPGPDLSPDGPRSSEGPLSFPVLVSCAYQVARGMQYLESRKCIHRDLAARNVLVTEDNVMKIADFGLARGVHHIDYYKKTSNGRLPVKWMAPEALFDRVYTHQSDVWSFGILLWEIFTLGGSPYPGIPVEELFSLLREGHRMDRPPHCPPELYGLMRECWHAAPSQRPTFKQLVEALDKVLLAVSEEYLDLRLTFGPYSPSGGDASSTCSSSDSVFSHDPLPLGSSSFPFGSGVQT
T1 sequence (P22607 whole entry, looked up): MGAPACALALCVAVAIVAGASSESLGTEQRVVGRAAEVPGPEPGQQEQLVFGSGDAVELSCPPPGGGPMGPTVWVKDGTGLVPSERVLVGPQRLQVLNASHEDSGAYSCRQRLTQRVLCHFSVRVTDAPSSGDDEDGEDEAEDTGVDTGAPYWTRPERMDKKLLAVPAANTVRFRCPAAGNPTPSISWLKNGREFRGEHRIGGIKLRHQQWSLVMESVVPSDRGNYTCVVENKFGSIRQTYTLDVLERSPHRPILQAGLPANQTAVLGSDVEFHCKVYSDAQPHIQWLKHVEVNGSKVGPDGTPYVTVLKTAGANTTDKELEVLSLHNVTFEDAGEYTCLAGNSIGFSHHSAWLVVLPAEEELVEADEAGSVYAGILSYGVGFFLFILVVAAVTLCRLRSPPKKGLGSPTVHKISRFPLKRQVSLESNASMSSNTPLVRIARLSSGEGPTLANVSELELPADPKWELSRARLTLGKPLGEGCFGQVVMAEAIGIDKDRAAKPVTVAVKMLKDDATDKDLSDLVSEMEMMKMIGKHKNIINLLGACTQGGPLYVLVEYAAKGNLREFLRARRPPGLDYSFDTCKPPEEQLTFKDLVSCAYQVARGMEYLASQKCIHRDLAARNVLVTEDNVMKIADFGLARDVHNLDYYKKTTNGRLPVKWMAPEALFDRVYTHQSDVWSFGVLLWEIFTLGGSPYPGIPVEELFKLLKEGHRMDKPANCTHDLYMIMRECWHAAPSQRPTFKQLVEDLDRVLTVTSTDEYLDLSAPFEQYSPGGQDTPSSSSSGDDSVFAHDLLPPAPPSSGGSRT
T2 sequence (P22455 whole entry): as the sequence (P22455 whole entry, looked up) above
Sequence of Fibroblast growth factor receptor 1 (Homo sapiens, UniProt P11362) (P11362 22-822 limits assumed): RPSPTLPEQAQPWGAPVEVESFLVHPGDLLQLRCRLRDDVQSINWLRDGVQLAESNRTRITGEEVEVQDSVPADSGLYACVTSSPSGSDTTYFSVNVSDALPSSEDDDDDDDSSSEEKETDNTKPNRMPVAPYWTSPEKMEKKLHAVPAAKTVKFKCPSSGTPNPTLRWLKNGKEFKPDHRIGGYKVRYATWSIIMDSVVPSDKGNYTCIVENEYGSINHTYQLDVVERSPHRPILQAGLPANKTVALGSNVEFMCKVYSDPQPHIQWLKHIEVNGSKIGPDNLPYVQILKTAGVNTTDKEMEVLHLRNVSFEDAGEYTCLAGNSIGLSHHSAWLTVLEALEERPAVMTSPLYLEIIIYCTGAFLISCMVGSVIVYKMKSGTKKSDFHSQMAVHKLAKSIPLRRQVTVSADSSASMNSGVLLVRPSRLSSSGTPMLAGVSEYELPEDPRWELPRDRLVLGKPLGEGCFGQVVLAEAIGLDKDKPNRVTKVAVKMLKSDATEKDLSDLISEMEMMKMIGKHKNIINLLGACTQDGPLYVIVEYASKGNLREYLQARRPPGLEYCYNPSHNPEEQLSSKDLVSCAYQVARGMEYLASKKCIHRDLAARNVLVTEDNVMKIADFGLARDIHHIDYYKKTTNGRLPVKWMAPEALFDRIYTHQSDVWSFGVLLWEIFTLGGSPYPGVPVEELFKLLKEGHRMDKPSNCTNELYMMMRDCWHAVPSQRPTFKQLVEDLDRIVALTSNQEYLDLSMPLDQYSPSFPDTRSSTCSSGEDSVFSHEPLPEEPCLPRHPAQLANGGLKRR
Sequence of Fibroblast growth factor receptor 1 (Homo sapiens, UniProt P11362, V561M) (P11362 22-822 V561M limits assumed): as the sequence (P11362 22-822 limits assumed) above, with V540M counted along it

Structure (SMILES): C=CC(=O)N1CCCC(n2nc3c(=O)[nH]nc(N)c3c2-c2oc3ccc(C)cc3c2C)C1 (stereo not given)
- Activity (NCI-H1581 [1]): Active
- inhibition [2]: < 50%
- IC50 (SNU-16 [3]): 1.2 nM
- IC50 (NCI-H1299): > 10 µM
- IC50 (NCI-H441): > 10 µM
- AUC [4]: 116 ng·h/mL
- Stability [5]: Stable
- IC50 (NCI-H520): > 10 µM
- bioavailability [6]: 20.4%
- AUC(0-t) at 24 h [7]: 70.2 ng·h/mL
- inhibition [8]: Active
- half-life [9]: 37.5 min
- Cmax [10]: 174 ng/mL
- IC50 (PC-9): > 10 µM
- AUC(0-t) at 24 h [11]: 115 ng·h/mL
- IC50 (NCI-H3122): > 10 µM
- Activity (SNU-16 [12]): 68.4%
- IC50 (A549): > 10 µM
- IC50 (NCI-H716 [13]): 3.2 nM
- IC50 [14]: 6.1 nM
- inhibition [15]: 102%
- IC50 (NCI-H1581 [16]): 54.9 nM
- IC50 (NCI-H2228): > 10 µM
- IC50 (NCI-H727): > 10 µM
- IC50 (EBC-1): > 10 µM
- IC50 (BaF3): > 10 µM
- MRT [17]: 1.16 h
- inhibition [18]: Active
- IC50 (OPM-2): 300 nM
- IC50 (NCI-H226): > 10 µM
- IC50 [19]: > 5 µM
- IC50 (SU.86.86): > 10 µM
- IC50 [20]: 155 nM
- IC50 (CAPAN-1): > 10 µM
- Activity (NCI-H716 [21]): 83.5%
- IC50 (PANC-1): > 10 µM
- solubility kinetic [22]: 50 µg/mL (≈ 116 µM)
- inhibition [23]: Active
- IC50 (NCI-H1792): > 10 µM
- Activity (NCI-H716 [24]): Active
